The values below come from patent US20220411880A1, “METHODS AND COMPOSITIONS FOR DIAGNOSING AND TREATING CHRONIC MYELOMONOCYTIC LEUKEMIA (CMML)” (INSERM (INSTITUT NATIONAL DE LA SANTÉET DE LA RECHERCHE …, priority 2019, published 2022).

For data set [1], the system named is ABCA1 mutant-transduced Tet2 deficient BM cells. Briefly: [3H]-thymidine proliferation assay in ex vivo BM liquid culture. It counts as cell-based, mouse. Particulars: FIG. 5E. The text has this:
FIG. 5. Cholesterol accumulation couples ABCA1 invalidation and Tet2 deficiency to IL-3 receptor β signaling hypersensitivity. (A-D) Quantification of BODIPY staining by flow cytometry expressed as mean fluorescence intensity (MFI) as a surrogate of cellular cholesterol neutral lipid per cell in BM hematopoietic stem (A and C) and progenitor (B and D) cells (i.e, LSKs, MEPs, CMPs and GMPs) of recipient mice transplanted with Mx1-Cre^+, Mx1-Cre^+ Abca1^fl/fl, MX1-Cre^+Tet2^fl/fl and Mx1-Cre^+Tet2^fl/flAbca1^fl/fl BM (A and B) or control and Mx1-Cre^+Tet2^fl/fl BM expressing empty, ABCA1-WT or ABCA1 mutants (C and D). (E) Expression of mRNA was normalized to m36B4. mRNA levels were expressed as percentage over WT whole BM cells. Proliferation rates were determined after 2 h [^3H]-thymidine pulse labeling in BM cells from empty, ABCA1-WT and ABCA1 mutants-transduced animals on a Tet2 deficient background that were grown for 72 h in liquid culture in the presence or absence of 6 ng/mL IL-3 and 2 ng/mL GM-CSF and the indicated chemical compounds.
FIG. 6. […] (A) Proliferation rates were determined after 2 h [^3H]-thymidine pulse labeling in BM cells from empty, ABCA1-WT and ABCA1 mutants-transduced animals on a Tet2 deficient background that were grown for 72 h in liquid culture in the presence or absence of 50 μg/mL PEG-HDL. […]

For data set [2] the test system is unchanged. Kind of data set: cell viability of treated ex vivo BM cultures. It counts as cell-based, mouse. Particulars: same treated BM cultures; data not shown. As to the method:
Briefly, femurs were flushed with ice-cold PBS and centrifugated for 5 min at 1,000 rpm to extract BM cells. After red blood cell lysis, over 90% of BM cells were CD45-positive cells of hematopoietic origin (Westerterp et al., 2012). Primary BM cells were resuspended in IMDM (Gibco) containing 10% FCS (STEMCELL Technologies) and cultured for 1 h in tissue culture flasks to remove adherent cells, including macrophages. The transduction rate of control, ABCA1-WT and ABCA 1-mutant lentiviral particles was determined after BM transplantation as described above. Suspended cells were then normalized to the same concentration and cultured for 72 h in the presence of 6 ng/mL IL-3 and 2 ng/mL GM-CSF (R&D Systems). In some experiments, the cyclodextrin (Sigma) was used at the final concentration of 5 mM, tempol (EMD Millipore) at 4 mM and anti-IL3Rbeta AF549 antibody (R&D Systems) at 50 μg/mL.

As for `CC1(C)CC(O)CC(C)(C)N1[O]` [tempol], the “basal proliferation and IL-3/GM-CSF hypersensitivity of ABCA1 mutants-transduced Tet2 deficient BM cells” value in data set [1] (tempol 4 mM, 72 h culture with or without 6 ng/mL IL-3 and 2 ng/mL GM-CSF) is “prevented the basal proliferation and IL-3/GM-CSF hypersensitivity”. Consider cyclodextrin, for which, in data set [2], the cell viability entry is “without affecting cell viability”. In data set [1] (72 h culture in presence or absence of IL-3 and GM-CSF, cyclodextrin 5 mM, antibody 50 μg/mL, effect similar to ABCA1-WT overexpression), the “proliferation of ABCA1 mutant-transduced Tet2 deficient BM cells” value is recorded as “prevented the proliferation”.
